The source of these data is PubChem BioAssay (NCI).

Where “and” joins values, the source holds several entries; their conditions need not be identical. Equal values may be shown once.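 Grown in 96-well plates, cells were treated for 48 hours with each compound at five concentrations. Insufficient inhibition: endpoint recorded as highest concentration tested. GI50: concentration for 50% inhibition of growth. The concentration for full growth arrest is given as TGI.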 Bounds are passed on as bounds.

Among the test systems are KM20L2 colon; NCI-H460 lung; NCI-H522 lung; LXFL 529 NSCLC; HT29 colon; OVCAR-3 ovarian; EKVX NSCLC; M14 melanoma; MOLT-4 leukemia; CCRF-CEM leukemia.
What all share (assay): NCI anticancer screen, dose series, 48 h

Regarding `CCC/C(=N\NC(=S)N1CC2CCC(CC2)C1)c1ccccn1`, the GI50 was 0.0165 µM in the assay with KM20L2 colon; 0.0244 µM with HT29 colon; 0.0246 µM with OVCAR-3 ovarian; 0.186 µM in the assay on EKVX NSCLC; 0.0142 µM with M14 melanoma. The TGI was 0.927 µM in the assay on NCI-H460 lung; 0.738 µM with NCI-H522 lung; 0.143 µM and 0.129 µM with LXFL 529 NSCLC; 1.65 µM and 2.51 µM with HT29 colon; 0.872 µM and 0.622 µM with OVCAR-3 ovarian; 0.598 µM and 0.207 µM with M14 melanoma.
Consider `CC(C)([NH-])CO.CC(C)([NH-])CO.[Cl][Cd][Cl]`, for which the GI50 was 30.9 µM with KM20L2 colon; 11.3 µM with NCI-H460 lung; 1.56 µM in the assay on NCI-H522 lung; 15 µM in the assay on LXFL 529 NSCLC; 21.8 µM in the assay with MOLT-4 leukemia; 28.8 µM in the assay on HT29 colon. The GI50 with OVCAR-3 ovarian is 20.2 µM; in the assay on CCRF-CEM leukemia it was 15.9 µM; in the assay with M14 melanoma, 18 µM. For the same compound, the TGI was 79.7 µM in the assay on KM20L2 colon; 24.6 µM with NCI-H460 lung; 3.37 µM with NCI-H522 lung; 29.3 µM with LXFL 529 NSCLC; 47.3 µM with MOLT-4 leukemia; 67.1 µM in the assay on HT29 colon. In addition, the TGI with OVCAR-3 ovarian is 38 µM; in the assay on CCRF-CEM leukemia it was 38.8 µM; with M14 melanoma it was 33.4 µM.
Consider `COC(=O)C(C(=O)OC)C1CCCC(=O)C1` (stereo not given), for which the TGI with KM20L2 colon, with NCI-H460 lung, in the assay on LXFL 529 NSCLC, in the assay with MOLT-4 leukemia, with HT29 colon and with OVCAR-3 ovarian was > 100 µM throughout. The TGI in the assay with CCRF-CEM leukemia, with EKVX NSCLC and in the assay with M14 melanoma was > 100 µM in each case.
Regarding `CC(=O)C1C(c2ccc(N(C)C)cc2)c2cc3c(cc2OC1(C)O)OCO3` (stereo not given), the TGI with KM20L2 colon is 26.6 µM; with NCI-H460 lung, > 100 µM; with MOLT-4 leukemia it was > 100 µM; in the assay on HT29 colon, 58.5 µM; in the assay on OVCAR-3 ovarian, > 100 µM; with CCRF-CEM leukemia it was > 100 µM. Further, the TGI in the assay with EKVX NSCLC and with M14 melanoma was > 100 µM each time.
For `Oc1ccc2ccccc2c1N=Nc1ccsc1`, the TGI in the assay on KM20L2 colon, with NCI-H460 lung, in the assay with NCI-H522 lung, with LXFL 529 NSCLC, in the assay with MOLT-4 leukemia and with HT29 colon was > 100 µM in each case. The TGI in the assay on OVCAR-3 ovarian, in the assay with CCRF-CEM leukemia and with M14 melanoma was > 100 µM throughout.
For `Cc1cccc(C(C)(C)C)c1NC(=O)CC1C(=O)Nc2ccccc2S1(=O)=O` (stereo not given), the TGI came to 22.3 µM in the assay with KM20L2 colon; 24.1 µM with NCI-H460 lung; 24.5 µM in the assay with LXFL 529 NSCLC; 5.19 µM in the assay with MOLT-4 leukemia; 16.3 µM in the assay with HT29 colon; 18.1 µM with OVCAR-3 ovarian. Also, the values for the TGI with CCRF-CEM leukemia, in the assay with EKVX NSCLC and in the assay on M14 melanoma were 7.8 µM, 14.5 µM and 27.8 µM, respectively.
Take `O=C(NCCCO)c1cc(Cl)ccc1O`: the GI50 in the assay on NCI-H460 lung was 2.78 µM; in the assay on NCI-H522 lung, 1.12 µM; with MOLT-4 leukemia, 3.22 µM; with HT29 colon, 2.16 µM; in the assay on OVCAR-3 ovarian, 1.6 µM; in the assay on CCRF-CEM leukemia, 0.728 µM. Further, the GI50 with EKVX NSCLC was 2 µM; in the assay on M14 melanoma, 3.85 µM. Moreover, the TGI with NCI-H460 lung is 11.1 µM; in the assay with NCI-H522 lung, 4.77 µM; in the assay on MOLT-4 leukemia it was 15.1 µM; with HT29 colon, 10.8 µM; with OVCAR-3 ovarian it was 9.11 µM; in the assay on CCRF-CEM leukemia, 17.3 µM. The figures for the TGI in the assay with EKVX NSCLC and in the assay on M14 melanoma were 18.1 µM and 15.7 µM, respectively.
For `C[n+]1c2cc(N)ccc2cc2ccc(N)cc21`, the GI50 is 460 nM [middle of 4 runs] in the assay on NCI-H460 lung; 917 nM [middle of 4 runs] in the assay with NCI-H522 lung; 547 nM [middle of 4 runs] in the assay on MOLT-4 leukemia; 1 µM [middle of 4 runs] with HT29 colon; 1.58 µM [middle of 4 runs] in the assay on OVCAR-3 ovarian; 2.1 µM [middle of 4 runs] in the assay with CCRF-CEM leukemia. The GI50 with EKVX NSCLC is 0.263 µM and 0.831 µM and 0.261 µM; in the assay with M14 melanoma, 1.68 µM [middle of 4 runs]. Besides, the TGI is 3.68 µM [middle of 4 runs] with NCI-H522 lung; 2.72 µM and 13.3 µM and 3.15 µM in the assay on HT29 colon; 7.45 µM [middle of 4 runs] in the assay on OVCAR-3 ovarian; 2.31 µM [middle of 4 runs] in the assay with EKVX NSCLC; 3.75 µM [middle of 4 runs] in the assay on M14 melanoma.
In the case of `CC(=O)c1c(C)[nH]c(-c2nc3ccc(N4CCN(C)CC4)cc3[nH]2)c1-c1ccc(N(C)C)cc1`, the GI50 is 2.76 µM with NCI-H460 lung; 0.606 µM in the assay with NCI-H522 lung; 1.5 µM in the assay on MOLT-4 leukemia; 0.299 µM in the assay with HT29 colon; 1.17 µM in the assay on OVCAR-3 ovarian; 1.16 µM in the assay with CCRF-CEM leukemia. The GI50 is 4.81 µM in the assay on EKVX NSCLC and 0.537 µM in the assay on M14 melanoma. The TGI is > 56.2 µM in the assay with NCI-H460 lung; 16.6 µM in the assay on NCI-H522 lung; 45.2 µM in the assay with MOLT-4 leukemia; 19.4 µM with HT29 colon; 17 µM in the assay with OVCAR-3 ovarian; > 37.7 µM with CCRF-CEM leukemia. For the same compound, the TGI in the assay on EKVX NSCLC is > 100 µM; in the assay on M14 melanoma it was 13.4 µM.
In the case of `N=c1ccn(O)cc1/C=C1/C(=O)Nc2ccccc21`, the GI50 in the assay on NCI-H460 lung, with NCI-H522 lung, with MOLT-4 leukemia, in the assay with HT29 colon, in the assay on OVCAR-3 ovarian and in the assay with CCRF-CEM leukemia was > 100 µM throughout. The GI50 with EKVX NSCLC and in the assay with M14 melanoma was > 100 µM each time. For the same compound, the TGI with NCI-H460 lung, in the assay with NCI-H522 lung, with MOLT-4 leukemia, with HT29 colon, with OVCAR-3 ovarian and in the assay with CCRF-CEM leukemia was > 100 µM throughout. Besides, the TGI in the assay with EKVX NSCLC and with M14 melanoma was > 100 µM each time.
